PubChem BioAssay (NCI)
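All cell lines were grown in 96-well plates and treated with compound for 48 hours. At the TGI there is no net growth.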 Where a SMILES comes first, the peptide text is derived from it. The star is where a group is joined. Cbz = O=C(OCc1ccccc1)*

Columns and labels:
Experiment in all cases: NCI-60 cell line screen, 48 h
SW-620 colon = tested on: SW-620 colon
PC-3 prostate = tested on: PC-3 prostate
NCI/ADR-RES ovarian = tested on: NCI/ADR-RES ovarian
TK-10 renal = tested on: TK-10 renal
SK-MEL-5 melanoma = tested on: SK-MEL-5 melanoma
HCT-15 colon = tested on: HCT-15 colon
UACC-62 melanoma = tested on: UACC-62 melanoma
CCRF-CEM leukemia = tested on: CCRF-CEM leukemia
DU-145 prostate = tested on: DU-145 prostate
UACC-257 melanoma = tested on: UACC-257 melanoma
COLO 205 colon = tested on: COLO 205 colon
SK-MEL-2 melanoma = tested on: SK-MEL-2 melanoma
NCI-H226 lung = tested on: NCI-H226 lung
RXF 393 renal = tested on: RXF 393 renal
MCF7 breast = tested on: MCF7 breast

| Structure (SMILES) | TGI (SW-620 colon) | TGI (PC-3 prostate) | TGI (NCI/ADR-RES ovarian) | TGI (TK-10 renal) | TGI (SK-MEL-5 melanoma) | TGI (HCT-15 colon) | TGI (UACC-62 melanoma) | TGI (CCRF-CEM leukemia) | TGI (DU-145 prostate) | TGI (UACC-257 melanoma) | TGI (COLO 205 colon) | TGI (SK-MEL-2 melanoma) | TGI (NCI-H226 lung) | TGI (RXF 393 renal) | TGI (MCF7 breast) |
| --- | --- | --- | --- | --- | --- | --- | --- | --- | --- | --- | --- | --- | --- | --- | --- |
| COc1cc(C2(O)c3ccccc3C3=NCCN32)cc(OC)c1OC (stereo unspecified) | > 100 µM | > 100 µM | > 100 µM | > 100 µM | > 100 µM | > 100 µM | > 100 µM | > 100 µM | > 100 µM | > 100 µM | > 100 µM | > 100 µM | > 100 µM | – | – |
| Cc1ccc(S(=O)(=O)NC2=NS(=O)(=O)c3cc(C)c(Cl)cc3S2)cc1 | > 100 µM | > 100 µM | > 100 µM | > 100 µM | > 100 µM | > 100 µM | > 100 µM | – | > 100 µM | > 100 µM | > 100 µM | > 100 µM | > 100 µM | > 100 µM | > 100 µM |
| COC(=O)CCC(C)C1CCC2C3CCC4CC5CCC4(C)C3(O5)C(Br)C(Br)C12C (stereo unspecified) | > 100 µM | > 100 µM | > 100 µM | > 100 µM | > 100 µM | > 100 µM | > 100 µM | – | > 100 µM | > 100 µM | > 100 µM | > 100 µM | > 100 µM | > 100 µM | > 100 µM |
| O=[N+]([O-])/C=C/COCc1cc2c(cc1Br)OCO2 | 39.4 µM | 25.6 µM | 41.6 µM | 34.8 µM | 37.1 µM | 34.3 µM | 30.1 µM | 11.5 µM | 35.5 µM | 33.3 µM | 43.6 µM | – | – | 30.9 µM | 33.5 µM |
| Nc1ccccc1OCc1cc(=O)c(OCc2ccccc2)co1 | > 100 µM | > 100 µM | > 100 µM | 61.2 µM | > 100 µM | > 100 µM | 4.49 µM | > 100 µM | > 100 µM | 81.7 µM | 44.9 µM | – | – | – | 89 µM |
| COc1cc(C2c3cc4c(cc3OC(NCc3ccccc3)C2C)OCO4)cc(OC)c1OC (stereo unspecified) | > 36 µM | – | 0.723 µM | > 100 µM | 1.78 µM | > 44.4 µM | 14.1 µM | 26.5 µM | > 100 µM | > 100 µM | 0.726 µM | > 66.6 µM | 7.33 µM | – | 48.7 µM |
| O=C(Cc1ccccc1)NNc1nc(NNC(=O)c2ccncc2)nc(Nc2ccc(Cl)cc2)n1 | > 10 µM | – | > 10 µM | > 10 µM | > 10 µM | > 10 µM | > 10 µM | > 10 µM | > 10 µM | > 10 µM | > 10 µM | – | – | – | > 10 µM |
| O=S1c2ccccc2SCSc2ccccc21 | – | > 100 µM | > 100 µM | > 100 µM | > 100 µM | > 100 µM | > 100 µM | – | > 100 µM | – | > 100 µM | > 100 µM | – | > 100 µM | > 100 µM |
| CCOC(=O)C(CC(=O)OC)NC(=O)C(CC(=O)OC)NC(=O)C(CC(=O)OC)NC(=O)C(CC(=O)OC)NC(=O)OCc1ccccc1 (stereo unspecified) (Cbz-D(OMe)D(OMe)D(OMe)D(OMe)-OEt; configuration not given here) | > 100 µM | > 100 µM | – | > 100 µM | > 100 µM | > 100 µM | > 100 µM | – | – | > 100 µM | > 100 µM | > 100 µM | > 100 µM | > 100 µM | > 100 µM |
| O=C(CC(C(=O)c1cccs1)c1ccsc1)c1ccco1 (stereo unspecified) | > 100 µM | – | 43.6 µM | > 100 µM | > 100 µM | 49.5 µM | 62.1 µM | 50.1 µM | > 100 µM | > 100 µM | 95.5 µM | – | > 100 µM | 49.7 µM | 42.3 µM |
| C/C(=N/NC(=S)NCCc1ccccn1)c1cnccn1 | > 100 µM | > 100 µM | – | > 100 µM | > 100 µM | – | 64.1 µM | 68.9 µM | > 100 µM | > 100 µM | > 100 µM | > 100 µM | – | – | – |
| [O-]c1c[n+](CC[n+]2cc([O-])on2)no1 | > 100 µM | > 100 µM | > 100 µM | > 100 µM | > 100 µM | > 100 µM | > 100 µM | > 100 µM | > 100 µM | > 100 µM | > 100 µM | > 100 µM | – | > 100 µM | > 100 µM |
| CC(C)(C)N(Cc1ccoc1)C(=O)/C=C\S(=O)c1ccccc1 (stereo unspecified) | 32 µM | 27.8 µM | 56.2 µM | > 100 µM | 27.4 µM | 51.4 µM | 39.3 µM | > 100 µM | 25.7 µM | 46.1 µM | 43.9 µM | 39.6 µM | 48.6 µM | – | 36.7 µM |
| CCCCc1ccc(Nc2nc(N)c3ncn(COCCO)c3n2)cc1 | > 100 µM | – | 71.7 µM | > 100 µM | 32.7 µM | 38.6 µM | 38.5 µM | > 100 µM | > 100 µM | 44.4 µM | 43.8 µM | 37.5 µM | > 100 µM | 98.2 µM | > 100 µM |
| CCCCCCCSCC1C(=O)C23C(O)C1CCC2C12COC3(O)C(O)C1C(C)(C)CCC2O (stereo unspecified) | 3.23 µM | – | – | 29.5 µM | 25.1 µM | 22.4 µM | 24 µM | 14 µM | – | 19.4 µM | 15.1 µM | 29.8 µM | 33 µM | 27.1 µM | – |
| Fc1ccc(Nc2nnc(-c3ccccn3)s2)cc1 | > 100 µM | > 100 µM | > 100 µM | > 100 µM | > 100 µM | > 100 µM | > 100 µM | > 100 µM | > 100 µM | > 100 µM | > 100 µM | > 100 µM | – | > 100 µM | > 100 µM |
| CC(C)(C)c1cc(C(=O)/C=C/c2ccc3c(c2)CCO3)cc(C(C)(C)C)c1O | > 100 µM | 4.8 µM | 1.05 µM | > 25.9 µM | 6.65 µM | > 25.9 µM | 29.6 µM | > 31.5 µM | – | – | 1.58 µM | 13.1 µM | > 28.4 µM | 0.579 µM | > 100 µM |
